In BindingDB's records for doi:10.1021/jm050686b (Rheinische Friedrich-Wilhelms-Universitat Bonn, 2005):

Biological target: Papain (Carica papaya) (UniProt P00784)
Assay: Enzyme activities were calculated from kinetic measurements performed by spectrophotometric detection of the product p-nitroaniline (pNA) at wavelength of 405 nm. Progress curves were monitored over 10 min. Rate was determined for 7 different inhibitor concentrations in duplicate. The apparent inhibition constant, Ki (app) was determined by fitting

Chain of Papain (Carica papaya) (P00784 whole entry, looked up): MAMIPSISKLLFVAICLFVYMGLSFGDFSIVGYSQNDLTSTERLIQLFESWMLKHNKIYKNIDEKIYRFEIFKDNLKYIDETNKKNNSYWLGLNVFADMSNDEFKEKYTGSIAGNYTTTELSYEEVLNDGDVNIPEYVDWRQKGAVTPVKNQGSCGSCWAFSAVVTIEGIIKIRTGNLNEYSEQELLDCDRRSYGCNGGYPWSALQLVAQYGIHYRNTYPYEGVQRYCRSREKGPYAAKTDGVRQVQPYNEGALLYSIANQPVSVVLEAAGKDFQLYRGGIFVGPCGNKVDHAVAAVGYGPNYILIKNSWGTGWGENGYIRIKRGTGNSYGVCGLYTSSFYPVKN

Which Ki does the source give for `CC(C)(C)OC(=O)N[C@@H](Cc1ccsc1)C(=O)NCC#N` [tert-butyl N-[(1S)-1-[(cyanomethyl)carbamoyl]-2-(thiophen-3-yl)ethyl]carbamate] here?
The Ki was 45 µM.
